In patent publication US10246426B2, “Triazole compounds as T-type calcium channel blockers” (IDORSIA PHARMACEUTICALS LTD, priority 2014, dated 2019):

Target: Cav3.2 (Homo sapiens, UniProt O95180)
Test: Calcium flux FLIPR assay, HEK293 cells recombinantly expressing Cav3.2
Assay type: cell-based
Conditions: Cav3.2-channel, Ca2+ entry stimulated by 10 mM CaCl2
Method in brief: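 Fluo-4-loaded HEK293 cells stably expressing Cav3.2, seeded overnight at 37 °C; compounds diluted in TEAC buffer (pH 7.2) and preincubated 3 min before Ca2+ entry triggered with CaCl2 at 10 mM final. Area under FLIPR fluorescence trace fitted sigmoidally; IC50 relative to vehicle signal.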

Sequence of Cav3.2 (O95180 whole entry, looked up): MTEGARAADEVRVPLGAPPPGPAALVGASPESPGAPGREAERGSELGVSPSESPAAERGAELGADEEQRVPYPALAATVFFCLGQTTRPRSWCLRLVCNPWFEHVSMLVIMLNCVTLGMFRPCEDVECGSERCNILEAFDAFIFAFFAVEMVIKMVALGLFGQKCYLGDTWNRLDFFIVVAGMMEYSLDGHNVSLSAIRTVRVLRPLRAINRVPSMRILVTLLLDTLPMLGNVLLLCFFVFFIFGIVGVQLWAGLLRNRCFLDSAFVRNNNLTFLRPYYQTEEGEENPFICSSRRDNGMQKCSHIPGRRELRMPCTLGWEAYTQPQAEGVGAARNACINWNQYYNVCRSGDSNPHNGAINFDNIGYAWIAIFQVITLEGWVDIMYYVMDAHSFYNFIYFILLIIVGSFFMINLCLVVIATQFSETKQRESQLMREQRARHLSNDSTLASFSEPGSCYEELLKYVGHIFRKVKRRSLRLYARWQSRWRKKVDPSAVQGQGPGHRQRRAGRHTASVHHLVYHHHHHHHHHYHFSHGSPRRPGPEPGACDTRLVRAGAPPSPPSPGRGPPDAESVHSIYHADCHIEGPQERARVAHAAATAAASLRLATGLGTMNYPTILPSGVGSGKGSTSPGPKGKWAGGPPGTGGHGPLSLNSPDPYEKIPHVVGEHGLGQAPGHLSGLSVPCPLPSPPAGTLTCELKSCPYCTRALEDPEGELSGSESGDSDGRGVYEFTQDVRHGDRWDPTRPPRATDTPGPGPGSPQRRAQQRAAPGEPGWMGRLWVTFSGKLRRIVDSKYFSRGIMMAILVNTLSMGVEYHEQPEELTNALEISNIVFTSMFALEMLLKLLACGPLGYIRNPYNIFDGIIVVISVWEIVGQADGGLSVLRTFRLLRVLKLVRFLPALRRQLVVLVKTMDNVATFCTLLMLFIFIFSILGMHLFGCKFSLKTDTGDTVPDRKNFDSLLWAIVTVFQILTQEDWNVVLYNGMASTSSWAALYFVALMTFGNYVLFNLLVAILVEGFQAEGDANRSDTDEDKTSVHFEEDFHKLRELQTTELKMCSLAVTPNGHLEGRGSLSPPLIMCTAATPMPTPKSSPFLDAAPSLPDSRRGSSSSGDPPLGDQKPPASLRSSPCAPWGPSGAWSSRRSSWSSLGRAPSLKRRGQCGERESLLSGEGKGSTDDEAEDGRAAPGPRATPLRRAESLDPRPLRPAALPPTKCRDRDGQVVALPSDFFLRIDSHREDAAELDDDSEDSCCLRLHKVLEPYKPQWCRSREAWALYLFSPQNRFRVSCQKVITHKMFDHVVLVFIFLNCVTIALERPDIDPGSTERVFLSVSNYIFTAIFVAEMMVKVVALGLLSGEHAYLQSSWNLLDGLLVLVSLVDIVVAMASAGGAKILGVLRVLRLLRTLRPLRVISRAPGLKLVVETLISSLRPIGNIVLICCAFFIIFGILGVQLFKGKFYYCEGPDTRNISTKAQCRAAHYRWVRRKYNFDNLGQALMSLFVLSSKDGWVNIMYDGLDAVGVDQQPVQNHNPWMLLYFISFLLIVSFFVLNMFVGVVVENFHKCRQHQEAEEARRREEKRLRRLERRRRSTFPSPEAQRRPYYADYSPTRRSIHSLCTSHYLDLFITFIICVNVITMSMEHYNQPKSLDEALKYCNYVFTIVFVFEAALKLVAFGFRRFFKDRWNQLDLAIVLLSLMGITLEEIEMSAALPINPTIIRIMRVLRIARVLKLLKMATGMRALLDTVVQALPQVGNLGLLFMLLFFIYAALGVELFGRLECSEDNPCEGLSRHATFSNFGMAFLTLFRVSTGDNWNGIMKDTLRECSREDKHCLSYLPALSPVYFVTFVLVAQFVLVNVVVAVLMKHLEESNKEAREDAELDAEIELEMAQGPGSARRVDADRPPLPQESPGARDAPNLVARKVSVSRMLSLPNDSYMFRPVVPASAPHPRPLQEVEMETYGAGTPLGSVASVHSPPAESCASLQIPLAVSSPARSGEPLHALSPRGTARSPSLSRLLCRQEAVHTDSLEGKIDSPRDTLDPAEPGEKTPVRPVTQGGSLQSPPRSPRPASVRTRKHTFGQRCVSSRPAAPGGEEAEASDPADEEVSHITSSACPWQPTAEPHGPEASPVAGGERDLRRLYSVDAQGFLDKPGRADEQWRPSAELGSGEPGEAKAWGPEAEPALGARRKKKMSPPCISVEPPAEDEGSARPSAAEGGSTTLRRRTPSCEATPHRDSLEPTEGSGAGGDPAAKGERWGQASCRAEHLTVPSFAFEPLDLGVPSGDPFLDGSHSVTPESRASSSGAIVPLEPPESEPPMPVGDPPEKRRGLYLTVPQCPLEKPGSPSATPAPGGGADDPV

SMILES	IC50
Cc1nn(C)c2ccc(CC(=O)Nc3cnn(Cc4ccc(C#N)cc4)n3)cc12 [Example 102, N-[2-(4-Cyano-benzyl)-2H-[1,2,3]triazol-4-yl]-2-(1,3-dimethyl-1H-indazol-5-yl)-acetamide]	160 nM
CCn1ncc2cc(CC(=O)Nc3cnn(Cc4ccc(C#N)cc4)n3)ccc21 [Example 103, N-[2-(4-Cyano-benzyl)-2H-[1,2,3]triazol-4-yl]-2-(1-ethyl-1H-indazol-5-yl)-acetamide]	74 nM
CCCn1ncc2cc(CC(=O)Nc3cnn(Cc4ccc(C#N)cc4)n3)ccc21 [Example 104, N-[2-(4-Cyano-benzyl)-2H-[1,2,3]triazol-4-yl]-2-(1-propyl-1H-indazol-5-yl)-acetamide]	70 nM
Cc1cn(C)c2cc(CC(=O)Nc3cnn(Cc4ccc(C#N)c(F)c4)n3)ccc12 [Example 105, N-[2-(4-Cyano-3-fluoro-benzyl)-2H-[1,2,3]triazol-4-yl]-2-(1,3-dimethyl-1H-indol-6-yl)-acetamide]	20 nM
Cc1cn(C)c2cc(CC(=O)Nc3cnn(Cc4ccc(C#N)cc4)n3)ccc12 [Example 106, N-[2-(4-Cyano-benzyl)-2H-[1,2,3]triazol-4-yl]-2-(1,3-dimethyl-1H-indol-6-yl)-acetamide]	36 nM
COc1cc(Cn2ncc(NC(=O)Cc3ccc(OCC4COC4)cc3)n2)ccc1F [Example 108, N-[2-(4-Fluoro-3-methoxy-benzyl)-2H-[1,2,3]triazol-4-yl]-2-[4-(oxetan-3-ylmethoxy)-phenyl]-acetamide]	300 nM
COc1cc(Cn2ncc(NC(=O)Cc3ccc4cnn(C)c4c3)n2)ccc1F [Example 109, N-[2-(4-Fluoro-3-methoxy-benzyl)-2H-[1,2,3]triazol-4-yl]-2-(1-methyl-1H-indazol-6-yl)-acetamide]	190 nM
COc1cc(Cn2ncc(NC(=O)Cc3ccc(C4(OC)COC4)cc3)n2)ccc1F [Example 110, N-[2-(4-Fluoro-3-methoxy-benzyl)-2H-[1,2,3]triazol-4-yl]-2-[4-(3-methoxy-oxetan-3-yl)-phenyl]-acetamide]	140 nM
COc1cc(Cn2ncc(NC(=O)Cc3ccc(OCC4CC(F)(F)C4)cc3)n2)ccc1F [Example 111, 2-[4-(3,3-Difluoro-cyclobutylmethoxy)-phenyl]-N-[2-(4-fluoro-3-methoxy-benzyl)-2H-[1,2,3]triazol-4-yl]-acetamide]	57 nM
COc1cc(Cn2ncc(NC(=O)Cc3ccc(OCC4(C)COC4)cc3)n2)ccc1F [Example 112, N-[2-(4-Fluoro-3-methoxy-benzyl)-2H-[1,2,3]triazol-4-yl]-2-[4-(3-methyl-oxetan-3-ylmethoxy)-phenyl]-acetamide]	190 nM
COc1cc(Cn2ncc(NC(=O)Cc3ccc(C4(C(F)(F)F)CC4)cc3)n2)ccc1F [Example 113, N-[2-(4-Fluoro-3-methoxy-benzyl)-2H-[1,2,3]triazol-4-yl]-2-[4-(1-trifluoromethyl-cyclopropyl)-phenyl]-acetamide]	230 nM
COc1cc(Cn2ncc(NC(=O)Cc3ccc(OC4CC(F)(F)C4)cc3)n2)ccc1F [Example 114]	73 nM
COc1cc(Cn2ncc(NC(=O)Cc3ccc(N4CCC(F)(F)C4)nc3)n2)ccc1F [Example 115, 2-[6-(3,3-Difluoro-pyrrolidin-1-yl)-pyridin-3-yl]-N-[2-(4-fluoro-3-methoxy-benzyl)-2H-[1,2,3]triazol-4-yl]-acetamide]	45 nM
COc1cc(Cn2ncc(NC(=O)Cc3ccc(C4(F)COC4)cc3)n2)ccc1F [Example 116, N-[2-(4-Fluoro-3-methoxy-benzyl)-2H-[1,2,3]triazol-4-yl]-2-[4-(3-fluoro-oxetan-3-yl)-phenyl]-acetamide]	140 nM
CCn1ncc2cc(CC(=O)Nc3cnn(Cc4ccc(F)c(OC)c4)n3)ccc21 [Example 117, 2-(1-Ethyl-1H-indazol-5-yl)-N-[2-(4-fluoro-3-methoxy-benzyl)-2H-[1,2,3]triazol-4-yl]-acetamide]	80 nM
